Experiment [1] addresses T1, recombinant human ALK5 (TGF-βR1) protein (Homo sapiens, UniProt P36897).
T1 construct: purchased Life Technologies PR9075A
T1 sequence (P36897 34-503): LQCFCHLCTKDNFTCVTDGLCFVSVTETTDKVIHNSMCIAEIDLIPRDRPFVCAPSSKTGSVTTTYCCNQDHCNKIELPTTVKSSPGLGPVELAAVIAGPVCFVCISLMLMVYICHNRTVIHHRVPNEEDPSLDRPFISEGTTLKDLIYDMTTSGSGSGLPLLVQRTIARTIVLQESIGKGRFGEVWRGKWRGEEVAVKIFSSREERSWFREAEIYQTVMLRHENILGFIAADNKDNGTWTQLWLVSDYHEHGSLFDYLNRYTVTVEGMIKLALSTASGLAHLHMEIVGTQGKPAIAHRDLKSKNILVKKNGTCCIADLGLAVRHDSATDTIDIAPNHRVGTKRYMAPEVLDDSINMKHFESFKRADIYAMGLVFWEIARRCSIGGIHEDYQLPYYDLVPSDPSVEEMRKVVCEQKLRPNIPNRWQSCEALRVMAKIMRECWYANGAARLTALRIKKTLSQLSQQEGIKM
In words: Biochemical ALK5 (TGF-βR1) assay to measure pKi (LANCE Ultra ULight kinase assay). Particulars: apparent pKi from pIC50 by Cheng-Prusoff, read-out: ALK5 pKi (converted). Put shortly: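 After a 60 min room-temperature preincubation of ALK5 with compound, phosphorylation proceeds 60 min at 37 °C on ATP addition (125 μM as 5× stock). Detection: Eu-labelled phospho-Thr1342 Topo IIα antibody in EDTA buffer, pH 7.0; emission 665 nm.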
(In TR-FRET formats the signal depends on donor and acceptor labels being close together.)

In experiment [2] the test system is TGF-β-stimulated SMAD3 phosphorylation in BEAS-2B cells. In words: Cellular ALK5 potency assay, inhibition of TGF-β stimulated pSMAD3 formation in BEAS-2B cells. Particulars: Homo sapiens; inhibition of TGF-β stimulated pSMAD3 formation, BEAS-2B cells; read-out: BEAS2B pIC50 (converted). Format: cell-based. Put shortly: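 BEAS-2B human lung epithelial cells, seeded overnight, were pre-treated with compound in HBSS/25 mM HEPES/1% BSA for 1 h at 37 °C, then stimulated with TGF-β (final 10 ng/mL) for 30 min. Lysates were assayed for pSMAD3 by AlphaLISA; pIC50 came from dose-dependent signal change versus TGF-β-stimulated untreated cells.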

With `Cc1cccc(-c2[nH]ncc2-c2ccc3ncc(C(=O)O[C@@H]4CCCNC4)cc3c2)n1` [Compound 1203, [(3R)-3-piperidyl] 6-[5-(6-methyl-2-pyridyl)-1H-pyrazol-4-yl]quinoline-3-carboxylate], in experiment [1], the Ki is 0.0398 to 0.316 nM. Further, the IC50 in experiment [2] was 25.1 to 158 nM.
For `Cc1cccc(-c2[nH]ncc2-c2ccc3ncc(C(=O)OCC4CCNCC4)cc3n2)n1` [Compound 211, 4-piperidylmethyl 6-[5-(6-methyl-2-pyridyl)-1H-pyrazol-4-yl]-1,5-naphthyridine-3-carboxylate] the same measures were 0.0398 to 0.316 nM and 25.1 to 158 nM.
For the compound `Cc1nc(-c2n[nH]cc2-c2ccc3ncc(N4CCC(N5CCCC5)CC4)cc3n2)ccc1F` [Compound 114, 2-[3-(5-fluoro-6-methyl-2-pyridyl)-1H-pyrazol-4-yl]-7-(4-pyrrolidin-1-yl-1-piperidyl)-1,5-naphthyridine], in experiment [1], the Ki was less than 0.0316 nM. Besides, the IC50 in experiment [2] is 25.1 to 158 nM.
Take `Cc1cccc(-c2nnn(Cc3ccccc3)c2-c2ccc3ncc(N4CCNCC4)cc3c2)n1` [Compound 382, 6-[3-benzyl-5-(6-methyl-2-pyridyl)triazol-4-yl]-3-piperazin-1-yl-quinoline]: in experiment [1], the Ki was 0.0398 to 0.316 nM. Moreover, the IC50 in experiment [2] is 25.1 to 158 nM.
Consider `Cc1cccc(-c2n[nH]cc2-c2ccc3ncc(NCC4CCCNC4)cc3n2)n1` (stereo not shown) [Compound 199, 6-[3-(6-methyl-2-pyridyl)-1H-pyrazol-4-yl]-N-(3-piperidylmethyl)-1,5-naphthyridin-3-amine], for which the Ki in experiment [1] was 0.0398 to 0.316 nM. In addition, the IC50 in experiment [2] was 200 to 1260 nM.
In the case of `Cc1cccc(-c2n[nH]cc2-c2ccc3ncc(N4CCNC5(CCC5)C4)cc3n2)n1` [Compound 223, 7-(5,8-diazaspiro[3.5]nonan-8-yl)-2-[3-(6-methyl-2-pyridyl)-1H-pyrazol-4-yl]-1,5-naphthyridine], in experiment [1], the Ki is 0.0398 to 0.316 nM. In experiment [2], the IC50 was 25.1 to 158 nM.
On to `CC(=O)NC1CC=C(c2cnc3ccc(-c4nc[nH]c4-c4cccc(C)n4)cc3c2)CC1` (stereo not shown) [Compound 26, N-[4-[6-[5-(6-methyl-2-pyridyl)-1H-imidazol-4-yl]-3-quinolyl]cyclohex-3-en-1-yl]acetamide], for which, in experiment [1], the Ki is less than 0.0316 nM. In experiment [2], the IC50 is less than 20 nM.
`CC(C)N1CCN(CCNc2cnc3ccc(-c4c[nH]nc4-c4cccc(C(F)F)n4)nc3c2)CC1` [Compound 226, 6-[3-[6-(difluoromethyl)-2-pyridyl]-1H-pyrazol-4-yl]-N-[2-(4-isopropylpiperazin-1-yl)ethyl]-1,5-naphthyridin-3-amine]: the Ki in experiment [1] was 0.0398 to 0.316 nM. In addition, the IC50 in experiment [2] is 25.1 to 158 nM.
Consider `COCC1CN(c2cnc3ccc(-c4c[nH]nc4-c4cccc(C)n4)nc3c2)CCN1` (racemic) [Compound 298, 2-[3-(6-methyl-2-pyridyl)-1H-pyrazol-4-yl]-7-[rac-(3R)-3-(methoxymethyl)piperazin-1-yl]-1,5-naphthyridine], for which, in experiment [1], the Ki is 0.0398 to 0.316 nM. Besides, in experiment [2], the IC50 is 25.1 to 158 nM.
On the same counts, the results for `Cc1nc(-c2n[nH]cc2-c2ccc3ncc(-c4cnn(CCN)c4)cc3n2)ccc1F` [Compound 192, 2-[4-[6-[3-(5-fluoro-6-methyl-2-pyridyl)-1H-pyrazol-4-yl]-1,5-naphthyridin-3-yl]pyrazol-1-yl]ethanamine] are less than 0.0316 nM and less than 20 nM.
With `Cc1cccc(-c2[nH]ncc2-c2ccc3ncc(C(=O)OC[C@@H]4CCCCN4)cc3c2)n1` [Compound 1205, [(2S)-2-piperidyl]methyl 6-[5-(6-methyl-2-pyridyl)-1H-pyrazol-4-yl]quinoline-3-carboxylate], the Ki in experiment [1] is 0.0398 to 0.316 nM. Further, the IC50 in experiment [2] is less than 20 nM.
On the same counts, the results for `Cc1cccc(-c2[nH]cnc2-c2ccc3ncc(-c4csc(C(=O)OC[C@H]5CCCCN5)c4)cc3c2)n1` [Compound 1207, [(2R)-2-piperidyl]methyl 4-[6-[5-(6-methyl-2-pyridyl)-1H-imidazol-4-yl]-3-quinolyl]thiophene-2-carboxylate] are less than 0.0316 nM and 25.1 to 158 nM.
On the same counts, the results for `Cc1cccc(-c2[nH]cnc2-c2ccc3ncc(C4=CCC(NC(C)C)CC4)cc3c2)n1` (stereo not shown) [Compound 540, N-isopropyl-4-[6-[5-(6-methyl-2-pyridyl)-1H-imidazol-4-yl]-3-quinolyl]cyclohex-3-en-1-amine] are less than 0.0316 nM and 25.1 to 158 nM.
`Cc1nc(-c2n[nH]cc2-c2ccc3ncc(-c4cnn5c4NCCC5)cc3n2)ccc1F` [Compound 1, 2-[3-(5-fluoro-6-methyl-2-pyridyl)-1H-pyrazol-4-yl]-7-(4,5,6,7-tetrahydropyrazolo[1,5-a]pyrimidin-3-yl)-1,5-naphthyridine]: the Ki in experiment [1] is less than 0.0316 nM. Moreover, in experiment [2], the IC50 is 25.1 to 158 nM.
Consider `Cc1cccc(-c2n[nH]cc2-c2ccc3ncc(NCC4CNCCN4)cc3n2)n1` (stereo not shown) [Compound 269, 6-[3-(6-methyl-2-pyridyl)-1H-pyrazol-4-yl]-N-(piperazin-2-ylmethyl)-1,5-naphthyridin-3-amine], for which the Ki in experiment [1] is 0.0398 to 0.316 nM. Moreover, the IC50 in experiment [2] was 1580 to 10000 nM.
For `Cc1cccc(-c2[nH]cnc2-c2ccc3ncc(-c4cccc(C(=O)O[C@@H]5CCN(C)C5)c4)cc3c2)n1` [Compound 608, [(3R)-1-methylpyrrolidin-3-yl] 3-[6-[5-(6-methyl-2-pyridyl)-1H-imidazol-4-yl]-3-quinolyl]benzoate], the Ki in experiment [1] was 0.0398 to 0.316 nM. Also, in experiment [2], the IC50 was 25.1 to 158 nM.
Turning to `Cc1cccc(-c2[nH]cnc2-c2ccc3ncc(-c4ccc(C(=O)OC5CNC5)nc4)cc3c2)n1` [Compound 616, azetidin-3-yl 5-[6-[5-(6-methyl-2-pyridyl)-1H-imidazol-4-yl]-3-quinolyl]pyridine-2-carboxylate], the Ki in experiment [1] was 0.0398 to 0.316 nM. The IC50 in experiment [2] is 25.1 to 158 nM.
With `Cc1nc(-c2n[nH]cc2-c2ccc3ncc(N4CCC(N(C)C)CC4)cc3n2)ccc1F` [Compound 514, 1-[6-[3-(5-fluoro-6-methyl-2-pyridyl)-1H-pyrazol-4-yl]-1,5-naphthyridin-3-yl]-N,N-dimethyl-piperidin-4-amine], in experiment [1], the Ki is 0.0398 to 0.316 nM. Also, the IC50 in experiment [2] is 25.1 to 158 nM.
On the same counts, the results for `Cc1cccc(-c2[nH]cnc2-c2ccc3ncc(-c4cncc(C(=O)O)c4)cc3c2)n1` [Compound 795, 5-[6-[5-(6-methyl-2-pyridyl)-1H-imidazol-4-yl]-3-quinolyl]pyridine-3-carboxylic acid] are 0.398 to 3.16 nM and 1580 to 10000 nM.
Consider `Cc1cccc(-c2[nH]cnc2-c2ccc3ncc(NCCN(C)C4CCNC4)cc3c2)n1` (racemic) [Compound 537, N′-methyl-N-[6-[5-(6-methyl-2-pyridyl)-1H-imidazol-4-yl]-3-quinolyl]-N′-[rac-(3R)-pyrrolidin-3-yl]ethane-1,2-diamine], for which the Ki in experiment [1] was 0.0398 to 0.316 nM. For the same compound, in experiment [2], the IC50 is 200 to 1260 nM.
As to `Cc1cccc(-c2[nH]cnc2-c2ccc3ncc(-c4nc(C(=O)OCCNC5CNC5)cs4)cc3c2)n1` [Compound 1254, 2-(azetidin-3-ylamino)ethyl 2-[6-[5-(6-methyl-2-pyridyl)-1H-imidazol-4-yl]-3-quinolyl]thiazole-4-carboxylate], the Ki in experiment [1] is less than 0.0316 nM. Besides, the IC50 in experiment [2] is 200 to 1260 nM.
As for `Cc1cccc(-c2[nH]nnc2-c2ccc3ncc(N4CCC(N5CCN(C)CC5)CC4)cc3n2)n1` [Compound 119, 7-[4-(4-methylpiperazin-1-yl)-1-piperidyl]-2-[5-(6-methyl-2-pyridyl)-1H-triazol-4-yl]-1,5-naphthyridine], the Ki in experiment [1] was 0.0398 to 0.316 nM. Also, in experiment [2], the IC50 was 200 to 1260 nM.
As for `Cc1cccc(-c2[nH]cnc2-c2ccc3ncc(NCCN4CC5(CCNCC5)C4)cc3c2)n1` [Compound 735, N-[2-(2,7-diazaspiro[3.5]nonan-2-yl)ethyl]-6-[5-(6-methyl-2-pyridyl)-1H-imidazol-4-yl]quinolin-3-amine], the Ki in experiment [1] was 0.0398 to 0.316 nM. For the same compound, in experiment [2], the IC50 is 200 to 1260 nM.
Consider `Cc1cccc(-c2n[nH]cc2-c2ccc3ncc(N4CCCN(CC(C)C)CC4)cc3n2)n1` [Compound 320, 7-(4-isobutyl-1,4-diazepan-1-yl)-2-[3-(6-methyl-2-pyridyl)-1H-pyrazol-4-yl]-1,5-naphthyridine], for which the Ki in experiment [1] is 0.0398 to 0.316 nM. Moreover, the IC50 in experiment [2] is 200 to 1260 nM.
Regarding `COC[C@H]1CN(CCNc2cnc3ccc(-c4nc[nH]c4-c4cccc(C)n4)cc3c2)CCN1` [Compound 37, N-[2-[(3R)-3-(methoxymethyl)piperazin-1-yl]ethyl]-6-[5-(6-methyl-2-pyridyl)-1H-imidazol-4-yl]quinolin-3-amine], the Ki in experiment [1] is 0.0398 to 0.316 nM. Further, the IC50 in experiment [2] was 25.1 to 158 nM.
As for `Cc1cccc(-c2n[nH]cc2-c2ccc3ncc(-c4nc5c(s4)CNCC5)cc3n2)n1` [Compound 175, 2-[6-[3-(6-methyl-2-pyridyl)-1H-pyrazol-4-yl]-1,5-naphthyridin-3-yl]-4,5,6,7-tetrahydrothiazolo[5,4-c]pyridine], in experiment [1], the Ki is 0.0398 to 0.316 nM. The IC50 in experiment [2] is 25.1 to 158 nM.

(Values after US11590116B2 (THERAVANCE BIOPHARMA R&D IP, LLC, priority 2019, dated 2023).)
